Experimental data published in patent US5561133A, “Thymidylate synthase inhibiting quinazolinones” (British Technology Group Limited, priority 1992, dated 1996).
pIC50: −log10 of the molar value.

Assays:
MCF-7 cell line = experiment: inhibition of growth of the human breast cancer cell line MCF-7 in cell culture; type: cell-based; settings: MCF7, MCF-7 cell culture, read-out: IC50 against the MCF-7 cell line
Excerpt: (c) An assay which determines the ability of a test compound to inhibit the growth of the human breast cancer cell line MCF-7 in cell culture. The test may be similar to that described by Lippman et al (Cancer Res., 1976, 36, 4595).

L1210 cell line = experiment: inhibition of growth of the leukaemia cell line L1210 in cell culture; type: cell-based; settings: Mus musculus, read-out: IC50 against the L1210 cell line
Excerpt: (b) An assay which determines the ability of a test compound to inhibit the growth of the leukaemia cell line L1210 in cell culture. The test may be similar to that described in UK Patent Specification No. 2065653B; and […]

[1] = system: human breast,ovarian and liver cancer; settings: clinical, humans; cited from earlier work
[2] = particularly liver and kidneys; cited from earlier work

| SMILES | pIC50 (MCF-7 cell line) | pIC50 (L1210 cell line) | activity against human breast, ovarian and liver cancer [1] | toxicity in humans [2] |
| --- | --- | --- | --- | --- |
| C#CCN(Cc1ccc2nc(C)[nH]c(=O)c2c1)c1ccc(C(=O)N[C@@H](CCC(=O)N(C)[C@@H](CCC(=O)O)C(=O)O)C(=O)O)cc1 [Example 1, N-p-[N-(3,4-Dihydro-2-methyl-4-oxoquinazolin-6-ylmethyl)-N-(prop-2-ynyl)amino]benzoyl-L-γ-glutamyl-N-methyl-L-glutamic acid] | 6.52 | 6.62 | – | – |
| C#CCN(Cc1ccc2nc(N)[nH]c(=O)c2c1)c1ccc(C(=O)N[C@@H](CCC(=O)O)C(=O)O)cc1 [CB3717] | – | – | promising activity | symptoms of toxicity in humans, particularly in relation to the liver and kidneys |
